In PMC6522510 (Nature Communications, 2019):
Where two headings read alike, the source gives them in different places.

Assays:
Experiment in all cases: cells
Parameters in all cases: species or system AML cell lines (8); Secondary HTS, 10-point dose-response in triplicate, Cell Titer Glo viability, four-parameter fit EC50
ML-2 = conditions: Homo sapiens, read-out: ML-2
MV4-11 = conditions: Homo sapiens, read-out: MV4-11
CMS = conditions: read-out: CMS
CHRF288-11 = conditions: read-out: CHRF288-11
MOLM-13 = conditions: Homo sapiens, read-out: MOLM-13
U937 = conditions: Homo sapiens, read-out: U937
M07e = conditions: M-07e, read-out: M07e
CMK = conditions: Homo sapiens, read-out: CMK

EC50 (MV4-11; MV4-11, 72 h) | EC50 (MOLM-13; MOLM-13, 72 h) | EC50 (U937; U-937, 72 h) | Compound | EC50 (ML-2; 72 h cell viability) | EC50 (MV4-11; 72 h cell viability) | EC50 (CMS; 72 h cell viability) | EC50 (CHRF288-11; 72 h cell viability) | EC50 (MOLM-13; 72 h cell viability) | EC50 (U937; U-937, 72 h cell viability) | EC50 (M07e; 72 h cell viability) | EC50 (CMK; 72 h cell viability) | EC50 (ML-2; ML-2, 72 h) | EC50 (CMS; 72 h) | EC50 (CHRF288-11; 72 h) | EC50 (M07e; 72 h) | EC50 (CMK; CMK, 72 h)
 |  |  | O=C(Nc1ncc([N+](=O)[O-])s1)c1ccc([N+](=O)[O-])c(Cl)c1 [SJ000834139, SM-7368] | > 10 µM | > 10 µM | > 10 µM | > 10 µM | > 10 µM | 6.8 µM | > 10 µM | > 10 µM |  |  |  |  | 
> 10 µM | > 10 µM | > 10 µM | CCOC(=O)C1=C(C)NC2=C(C(=O)CC(C)(C)C2)C1c1ccc(-c2ccccc2)cc1 (stereo not shown) [SJ000834140, ITD-1] |  |  |  |  |  |  |  |  | > 10 µM | > 10 µM | > 10 µM | > 10 µM | > 10 µM
> 10 µM | 0.47 µM | 3 µM | CCN1CCN(CC(=O)Nc2ccc(-c3cccc4c(=O)cc(N5CCOCC5)oc34)c3sc4ccccc4c23)CC1 [SJ000834141, KU-0060648] |  |  |  |  |  |  |  |  | 0.43 µM | 2.8 µM | 0.78 µM | 4 µM | 0.27 µM
> 10 µM | > 10 µM | > 10 µM | Cc1ccc(NCCCc2ccccc2)c(N)c1 [SJ000834143, JSH-23] |  |  |  |  |  |  |  |  | > 10 µM | > 10 µM | > 10 µM | > 10 µM | 8.7 µM
> 10 µM | > 10 µM | > 10 µM | O=C(Nc1cc(Cl)cc2c1[nH]c1cnccc12)c1cccnc1 [SJ000834145, PS-1145] |  |  |  |  |  |  |  |  | > 10 µM | > 10 µM | > 10 µM | > 10 µM | > 10 µM
0.19 µM | 0.19 µM | 0.19 µM | c1ccc2c(-c3cnn4cc(-c5ccc(N6CCNCC6)cc5)cnc34)ccnc2c1 [SJ000834146, LDN-193189] |  |  |  |  |  |  |  |  | 0.18 µM | 0.53 µM | 0.36 µM | 0.62 µM | 1.1 µM
> 10 µM | > 10 µM | 6.7 µM | CC(C)c1cccc(C(C)C)c1N1C(=O)c2ccc(O)cc2C1=O [SJ000834149, 5HPP-33] |  |  |  |  |  |  |  |  | 5.7 µM | 8.4 µM | > 10 µM | > 10 µM | > 10 µM
> 10 µM | > 10 µM | > 10 µM | c1ccc(-c2nn3c(c2-c2ccnc4cc(OCCN5CCOCC5)ccc24)CCC3)nc1 [SJ000834150, LY2109761] |  |  |  |  |  |  |  |  | > 10 µM | > 10 µM | > 10 µM | > 10 µM | > 10 µM
> 10 µM | > 10 µM | 9.2 µM | CN1CCN(c2cc(C(=O)Nc3ccc4c(c3)-c3c(c(C(N)=O)nn3-c3ccc(F)cc3)CC4)c(Cl)cn2)CC1 [SJ000834153, PHA 408] |  |  |  |  |  |  |  |  | > 10 µM | > 10 µM | > 10 µM | 5.2 µM | > 10 µM
> 10 µM | > 10 µM | > 10 µM | O=c1cc(N2CCOCC2)oc2c1ccc1ccccc12 [SJ000834163, NU 7026] |  |  |  |  |  |  |  |  | > 10 µM | > 10 µM | > 10 µM | > 10 µM | > 10 µM
1.8 µM | 1.3 µM | 0.5 µM | Cc1ccc(S(=O)(=O)/C=C/C#N)cc1 [SJ000834165, BAY 11-7082] |  |  |  |  |  |  |  |  | 0.68 µM | 3.6 µM | 1.8 µM | 3.3 µM | 4.5 µM
> 10 µM | > 10 µM | > 10 µM | COc1cc(C(=O)NC2CCN(C)CC2)c(F)cc1Nc1ncc2c(n1)N(C1CCCC1)CC(F)(F)C(=O)N2C [TAK-960] |  |  |  |  |  |  |  |  | > 10 µM | > 10 µM | > 10 µM | > 10 µM | > 10 µM
> 10 µM | > 10 µM | > 10 µM | CC1(C)CCC(C)(C)c2cc(NC(=O)c3ccc(C(=O)O)cc3)ccc21 [TAMIBAROTENE] |  |  |  |  |  |  |  |  | > 10 µM | > 10 µM | > 10 µM | > 10 µM | > 10 µM
> 10 µM | > 10 µM | > 10 µM | CCOC(=O)c1ccc(C#Cc2ccc3c(c2)C(C)(C)CCS3)nc1 [TAZAROTENE] |  |  |  |  |  |  |  |  | > 10 µM | > 10 µM | > 10 µM | > 10 µM | > 10 µM
> 10 µM | > 10 µM | > 10 µM | Cn1nnc2c(C(N)=O)ncn2c1=O [TEMOZOLOMIDE] |  |  |  |  |  |  |  |  | > 10 µM | > 10 µM | > 10 µM | > 10 µM | > 10 µM
> 10 µM | > 10 µM | > 10 µM | CO[C@H]1C[C@@H]2CC[C@@H](C)[C@@](O)(O2)C(=O)C(=O)N2CCCC[C@H]2C(=O)O[C@H]([C@H](C)C[C@@H]2CC[C@@H](OC(=O)C(C)(CO)CO)[C@H](OC)C2)CC(=O)[C@H](C)/C=C(\C)[C@@H](O)[C@@H](OC)C(=O)[C@H](C)C[C@H](C)/C=C/C=C/C=C/1C [TEMSIROLIMUS] |  |  |  |  |  |  |  |  | > 10 µM | > 10 µM | > 10 µM | > 10 µM | > 10 µM
> 10 µM | > 10 µM | > 10 µM | CC1=C(/C=C/C(C)=C/C=C/C(C)=C/C(=O)O)C(C)(C)CCC1 [TRETINOIN] |  |  |  |  |  |  |  |  | > 10 µM | > 10 µM | > 10 µM | > 10 µM | > 10 µM
> 10 µM | > 10 µM | > 10 µM | C[C@]1(c2nc3c(C(N)=O)cccc3[nH]2)CCCN1 [VELIPARIB] |  |  |  |  |  |  |  |  | > 10 µM | > 10 µM | > 10 µM | > 10 µM | > 10 µM
> 10 µM | > 10 µM | > 10 µM | CCCS(=O)(=O)Nc1ccc(F)c(C(=O)c2c[nH]c3ncc(-c4ccc(Cl)cc4)cc23)c1F [VEMURAFENIB] |  |  |  |  |  |  |  |  | > 10 µM | > 10 µM | > 10 µM | > 10 µM | > 10 µM
> 10 µM | > 10 µM | > 10 µM | CS(=O)(=O)c1ccc(C(=O)Nc2ccc(Cl)c(-c3ccccn3)c2)c(Cl)c1 [VISMODEGIB] |  |  |  |  |  |  |  |  | > 10 µM | > 10 µM | > 10 µM | > 10 µM | > 10 µM
> 10 µM | > 10 µM | > 10 µM | COc1ccc(Cl)c(Nc2nc3ccccc3nc2NS(=O)(=O)c2cccc(NC(=O)C(C)(C)N)c2)c1 [XL147] |  |  |  |  |  |  |  |  | > 10 µM | > 10 µM | > 10 µM | > 10 µM | > 10 µM

Compound | EC50 (MV4-11; MV4-11, 72 h) | EC50 (MOLM-13; MOLM-13, 72 h) | EC50 (U937; U-937, 72 h) | EC50 (ML-2; 72 h cell viability) | EC50 (MV4-11; 72 h cell viability) | EC50 (CMS; 72 h cell viability) | EC50 (CHRF288-11; 72 h cell viability) | EC50 (MOLM-13; 72 h cell viability) | EC50 (U937; U-937, 72 h cell viability) | EC50 (M07e; 72 h cell viability) | EC50 (CMK; 72 h cell viability) | EC50 (ML-2; ML-2, 72 h) | EC50 (CMS; 72 h) | EC50 (CHRF288-11; 72 h) | EC50 (M07e; 72 h) | EC50 (CMK; CMK, 72 h)
COc1ccc([C@@]23Oc4cc(OC)cc(OC)c4[C@]2(O)[C@H](O)[C@H](C(=O)N(C)C)[C@H]3c2ccccc2)cc1 [SJ000834151, ROCAGLAMIDE A] | > 10 µM | 0.018 µM | 0.053 µM |  |  |  |  |  |  |  |  | 0.044 µM | 0.017 µM | 0.014 µM | 0.031 µM | 0.021 µM
Nc1nc(NC2CC2)cc(-c2cccc(Cl)c2Cl)n1 [SJ000834160, TH588] | > 10 µM | > 10 µM | 3 µM |  |  |  |  |  |  |  |  | 10 µM | > 10 µM | > 10 µM | > 10 µM | 4.8 µM
